Data from patent publication US6096930A, “Herbicidal cyclohexane-1,3-dione derivatives and their preparation process” (Korea Research Institute of Chemical Technology, priority 1994, dated 2000).
Where two headings read alike, the source gives them in different places.

Key:
Assay in all cases: Herbicidal activity for paddy test
Type in all cases: in vivo
[1] = test system: ORYSA; settings: for plant injury at 2 g/ha: 0.002 kg/ha; for plant injury at 8 g/ha: 0.008 kg/ha; for plant injury at 31 g/ha: 0.031 kg/ha; for plant injury at 125 g/ha: 0.125 kg/ha; for plant injury at 500 g/ha: 0.500 kg/ha
Source text: (§1) The sterilized sandy loam soil is filled in test pot having a surface area of 348 cm^2 for upland test conditions or 115 cm^2 for paddy test species were planted in furrows.
(§2) The herbicidal activity data were taken visually by percent control, wherein 0 signifies no herbicidal effect and 100 signifies complete kill.

[2] = test system: SCPJU; settings: for pest or weed control at 2 g/ha: 0.002 kg/ha; for pest or weed control at 8 g/ha: 0.008 kg/ha; for pest or weed control at 31 g/ha: 0.031 kg/ha; for pest or weed control at 125 g/ha: 0.125 kg/ha; for pest or weed control at 500 g/ha: 0.500 kg/ha
Source text: as §1, §2

[3] = test system: MOOVA; settings: for pest or weed control at 2 g/ha: 0.002 kg/ha; for pest or weed control at 8 g/ha: 0.008 kg/ha; for pest or weed control at 31 g/ha: 0.031 kg/ha; for pest or weed control at 125 g/ha: 0.125 kg/ha; for pest or weed control at 500 g/ha: 0.500 kg/ha
Source text: as §1, §2

[4] = test system: SAGPY; settings: for pest or weed control at 2 g/ha: 0.002 kg/ha; for pest or weed control at 8 g/ha: 0.008 kg/ha; for pest or weed control at 31 g/ha: 0.031 kg/ha; for pest or weed control at 125 g/ha: 0.125 kg/ha; for pest or weed control at 500 g/ha: 0.500 kg/ha
Source text: as §1, §2

[5] = test system: ECHOR; settings: for pest or weed control at 2 g/ha: 0.002 kg/ha; for pest or weed control at 8 g/ha: 0.008 kg/ha; for pest or weed control at 31 g/ha: 0.031 kg/ha; for pest or weed control at 125 g/ha: 0.125 kg/ha; for pest or weed control at 500 g/ha: 0.500 kg/ha
Source text: as §1, §2

[6] = 3 Leaf, read-out: Herbicidal activity, ORYSA (3 Leaf)
[7] = seed, read-out: Herbicidal activity, ORYSA (seed)

Compound | plant injury at 2 g/ha [1, 6] [%] | plant injury at 8 g/ha [1, 6] [%] | plant injury at 31 g/ha [1, 6] [%] | plant injury at 125 g/ha [1, 6] [%] | plant injury at 500 g/ha [1, 6] [%] | plant injury at 2 g/ha [1, 7] [%] | plant injury at 8 g/ha [1, 7] [%] | plant injury at 31 g/ha [1, 7] [%] | plant injury at 125 g/ha [1, 7] [%] | plant injury at 500 g/ha [1, 7] [%] | pest or weed control at 2 g/ha [2] [%] | pest or weed control at 8 g/ha [2] [%] | pest or weed control at 31 g/ha [2] [%] | pest or weed control at 125 g/ha [2] [%] | pest or weed control at 500 g/ha [2] [%] | pest or weed control at 2 g/ha [3] [%] | pest or weed control at 8 g/ha [3] [%] | pest or weed control at 31 g/ha [3] [%] | pest or weed control at 125 g/ha [3] [%] | pest or weed control at 500 g/ha [3] [%] | other results
C=CCON=C(CC)C1=C(O)CC(c2c(C)c(C)c3c(c2C)CC(C)(CC)C3)CC1=O (stereo not drawn) [Compound 13, 5-(2-Ethyl-2,4,5,7-tetramethylindan-6-yl)-2-[1-(allyloxyimino)propyl]-3-hydroxycyclohex-2-en-1-one] | 0 | 0 | 0 | 0 | 30 | 0 | 30 | 50 | 100 | 100 | 0 | 0 | 0 | 0 | 0 | 0 | 0 | 0 | 0 | 30 | pest or weed control at 2 g/ha [4]: 0%; pest or weed control at 8 g/ha [4]: 0%; pest or weed control at 31 g/ha [4]: 0%; pest or weed control at 125 g/ha [4]: 30%; pest or weed control at 500 g/ha [4]: 30%; pest or weed control at 2 g/ha [5]: 30%; pest or weed control at 8 g/ha [5]: 50%; pest or weed control at 31 g/ha [5]: 100%; pest or weed control at 125 g/ha [5]: 100%; pest or weed control at 500 g/ha [5]: 100%
CCC(=NOCC=CCl)C1=C(O)CC(c2c(C)c(C)c3c(c2C)CC(C)(CC)C3)CC1=O (stereo not drawn) [Compound 14] | 0 | 0 | 0 | 0 | 40 | 0 | 0 | 0 | 40 | 100 | 0 | 0 | 0 | 30 | 90 | 0 | 0 | 0 | 30 | 100 | pest or weed control at 2 g/ha [4]: 0%; pest or weed control at 8 g/ha [4]: 0%; pest or weed control at 31 g/ha [4]: 0%; pest or weed control at 125 g/ha [4]: 0%; pest or weed control at 500 g/ha [4]: 30%; pest or weed control at 2 g/ha [5]: 30%; pest or weed control at 8 g/ha [5]: 70%; pest or weed control at 31 g/ha [5]: 100%; pest or weed control at 125 g/ha [5]: 100%; pest or weed control at 500 g/ha [5]: 100%
C=C(Cl)CON=C(CC)C1=C(O)CC(c2c(C)c(C)c3c(c2C)CC(C)(CC)C3)CC1=O (stereo not drawn) [Compound 15] | 0 | 0 | 0 | 0 | 30 | 0 | 0 | 0 | 40 | 100 | 0 | 0 | 0 | 0 | 0 | 0 | 0 | 0 | 0 | 30 | pest or weed control at 2 g/ha [4]: 0%; pest or weed control at 8 g/ha [4]: 0%; pest or weed control at 31 g/ha [4]: 0%; pest or weed control at 125 g/ha [4]: 0%; pest or weed control at 500 g/ha [4]: 0%; pest or weed control at 2 g/ha [5]: 0%; pest or weed control at 8 g/ha [5]: 30%; pest or weed control at 31 g/ha [5]: 30%; pest or weed control at 125 g/ha [5]: 100%; pest or weed control at 500 g/ha [5]: 100%
CCCC(=NOC)C1=C(O)CC(c2c(C)c(C)c3c(c2C)CC(C)(CC)C3)CC1=O (stereo not drawn) [Compound 16] | 0 | 0 | 0 | 0 | 30 | 0 | 0 | 30 | 100 | 100 | 0 | 0 | 0 | 0 | 0 | 0 | 0 | 30 | 50 | 50 | pest or weed control at 2 g/ha [4]: 0%; pest or weed control at 8 g/ha [4]: 0%; pest or weed control at 31 g/ha [4]: 0%; pest or weed control at 125 g/ha [4]: 0%; pest or weed control at 500 g/ha [4]: 30%; pest or weed control at 2 g/ha [5]: 0%; pest or weed control at 8 g/ha [5]: 30%; pest or weed control at 31 g/ha [5]: 70%; pest or weed control at 125 g/ha [5]: 100%; pest or weed control at 500 g/ha [5]: 100%
C=CCON=C(CCC)C1=C(O)CC(c2c(C)c(C)c3c(c2C)CC(C)(CC)C3)CC1=O (stereo not drawn) [Compound 18] | 0 | 0 | 0 | 0 | 0 | 0 | 0 | 0 | 30 | 100 | 0 | 0 | 0 | 0 | 0 | 0 | 0 | 0 | 0 | 0 | pest or weed control at 2 g/ha [4]: 0%; pest or weed control at 8 g/ha [4]: 0%; pest or weed control at 31 g/ha [4]: 0%; pest or weed control at 125 g/ha [4]: 0%; pest or weed control at 500 g/ha [4]: 0%; pest or weed control at 2 g/ha [5]: 0%; pest or weed control at 8 g/ha [5]: 30%; pest or weed control at 31 g/ha [5]: 70%; pest or weed control at 125 g/ha [5]: 100%; pest or weed control at 500 g/ha [5]: 100%
CCCC(=NOCC=CCl)C1=C(O)CC(c2c(C)c(C)c3c(c2C)CC(C)(CC)C3)CC1=O (stereo not drawn) [Compound 19] | 0 | 0 | 0 | 0 | 0 | 0 | 0 | 0 | 0 | 30 | 0 | 0 | 0 | 0 | 0 | 0 | 0 | 0 | 0 | 0 | pest or weed control at 2 g/ha [4]: 0%; pest or weed control at 8 g/ha [4]: 0%; pest or weed control at 31 g/ha [4]: 0%; pest or weed control at 125 g/ha [4]: 0%; pest or weed control at 500 g/ha [4]: 0%; pest or weed control at 2 g/ha [5]: 0%; pest or weed control at 8 g/ha [5]: 50%; pest or weed control at 31 g/ha [5]: 80%; pest or weed control at 125 g/ha [5]: 100%; pest or weed control at 500 g/ha [5]: 100%
